# Values joined by “and” are separate entries in the source; they are usually repeats but may differ in a detail not shown here. Equal entries are not always repeated.
# How the values were obtained:
# Assay in all cases: Greenhouse postemergence herbicidal effect (visual injury)
# Format in all cases: in vivo
# [1] = system: ORYSA, Oryza sativa (common rice); details: with cloquintocet-mexyl
# From the text: (§1) Seeds of the desired test plant species were planted in a 90:10% v/v (volume/volume) mixture of PRO-MIX® BX (Premier Tech Horticulture, Quakertown, Pa., USA) and PROFILE® GREENS GRADE™ (Profile Products LLC, Buffalo Grove, Ill., USA) planting mixture, which typically has a pH of 5.2 to 6.2 and an organic matter content of at least 50 percent, in plastic pots with a surface area of 103.2 square centimeters (cm^2). In some aspects, to help ensure good germination and healthy plants, a fungicide treatment and/or other chemical or physical treatment was applied. The plants were grown for 7-36 days (d) in a greenhouse with an approximate 14-hour (h) photoperiod which was maintained at about 23° C. during the day and 22° C. during the night. Nutrients and water were added on a regular basis and supplemental lighting was provided with overhead metal halide 1000-Watt lamps as necessary. The plants were employed for testing when they reached the second or third true leaf stage.
# (§2) Emulsifiable concentrates of each of each pyridine carboxylate herbicide (Compound A or Compound B) were prepared at 100 grams acid equivalent per liter (g ae/L). The emulsifiable concentrates also included a safener, cloquintocet-mexyl, at 120 grams active ingredient per liter (g ai/L), unless otherwise noted below. An aliquot of each emulsifiable concentrate was placed in a 25 mL glass vial and diluted with an aqueous mixture of 1.25% (v/v) ACTIROB® B esterified rapeseed oil (Bayer Crop Science, Research Triangle Park, N.C., USA) or MSO® Concentrate with LECI-TECH® methylated soybean oil (Loveland Products, Loveland, Colo., USA) to obtain concentrated stock solutions at the highest application rate for each herbicide, based upon a 12 milliliter (mL) application volume at a rate of 187 liters per hectare (L/ha). The concentrated stock solutions were further diluted with an aqueous mixture of 1.25% v/v ACTIROB® B or MSO® Concentrate with LECI-TECH® to obtain stock solutions at reduced application rates for each herbicide. Spray solutions of the herbicide combinations (Compound A or Compound B plus ACCase inhibitor herbicide) were prepared by adding weighed amounts or aliquots of the ACCase inhibitor herbicide to the stock solutions of Compound A or Compound B to form 12-mL spray solutions in two-way combinations.
# (§3) The spray solutions were applied to the plant material with an overhead Mandel track sprayer equipped with 8002E nozzles calibrated to deliver 187 L/ha over an application area of 0.503 square meters (m^2) at a spray height of 18 inches (43 centimeters (cm)) above the average plant canopy. Control plants were sprayed in the same manner with the solvent blank. All pyridine carboxylate herbicide (component a) application rates are given as “g ae/ha” and all ACCase inhibitor herbicide (component b) application rates are given as “g ai/ha.”
# (§4) The treated plants and control plants were placed in a greenhouse as described above and watered by sub-irrigation to prevent wash-off of the test compounds. After 20-22 d, the condition of the test plants as compared with that of the control plants was determined visually and scored on a scale of 0 to 100 percent where 0 corresponds to no injury and 100 corresponds to complete kill.
# [2] = system: LEFCH, Leptochloa chinensis (Chinese sprangletop)
# From the text: as §1, §2, §3, §4
# [3] = system: CYPDI, Cyperus difformis (small-flower flatsedge); details: with cloquintocet-mexyl
# From the text: as §1, §2, §3, §4
# [4] = system: VIOTR, Viola tricolor (wild pansy)
# From the text: as §1, §2, §3, §4
# [5] = system: LOLMG, Lolium multiflorum subsp. gaudini (annual ryegrass); details: with cloquintocet-mexyl
# From the text: as §1, §2, §3, §4
# [6] = 7.5 g ae/ha, without cloquintocet-mexyl
# [7] = 10 g ae/ha, without cloquintocet-mexyl
smiles,measurement,setting,value
"N#CCOC(=O)c1nc(-c2ccc3cc[nH]c3c2F)c(F)c(N)c1Cl [Compound A, cyanomethyl 4-amino-3-chloro-5-fluoro-6-(7-fluoro-1H-indol-6-yl)pyridine-2-carboxylate]","% visual injury, Obs",[1]; 7.5 g ae/ha,0%
same,"% visual injury, Obs",[1]; 10 g ae/ha,0%
same,"% visual injury, Obs",[2]; [6],0%
same,"% visual injury, Obs",[2]; [7],0% and 5%
same,"% visual injury, Obs","[2]; LEFCH, Compound A 7.5 g/ha, Fluazifop 0 g/ha",0%
same,"% visual injury, Obs","[2]; LEFCH, Compound A 7.5 g/ha, Haloxyfop-R-methyl 0 g/ha",0%
same,"% visual injury, Obs","[2]; LEFCH, Compound A 7.5 g/ha, Quizalofop-P-ethyl 0 g/ha",0%
same,"% visual injury, Obs","[2]; LEFCH, Compound A 10 g/ha, Fluazifop 0 g/ha",0%
same,"% visual injury, Obs","[2]; LEFCH, Compound A 10 g/ha, Haloxyfop-R-methyl 0 g/ha",5%
same,"% visual injury, Obs","[2]; LEFCH, Compound A 10 g/ha, Quizalofop-P-ethyl 0 g/ha",5%
same,"% visual injury, Obs",[3]; 7.5 g ae/ha,60%
same,"% visual injury, Obs",[3]; 10 g ae/ha,72%
same,"% visual injury, Obs",[4]; [6],8%
same,"% visual injury, Obs",[4]; [7],15%
same,"% visual injury, Obs","[4]; VIOTR, Compound A 7.5 g/ha, Fluazifop 0 g/ha",8%
same,"% visual injury, Obs","[4]; VIOTR, Compound A 10 g/ha, Fluazifop 0 g/ha",15%
same,"% visual injury, Obs",[5]; 7.5 g ae/ha,0%
same,"% visual injury, Obs",[5]; 10 g ae/ha,3%

# From patent US20210392892A1, “COMPOSITIONS COMPRISING PYRIDINE CARBOXYLATE HERBICIDES AND ACETYL COA CARBOXYLASE (ACCASE) INHIBITOR HERBICIDES” (Corteva Agriscience LLC, priority 2018, published 2021)
